In BindingDB's records for patent US20250214942 (University ff Texas System, 2025):

Target: T1, Receptor-interacting serine/threonine-protein kinase 1 (Homo sapiens, UniProt Q13546)
T1 sequence (Q13546 whole entry): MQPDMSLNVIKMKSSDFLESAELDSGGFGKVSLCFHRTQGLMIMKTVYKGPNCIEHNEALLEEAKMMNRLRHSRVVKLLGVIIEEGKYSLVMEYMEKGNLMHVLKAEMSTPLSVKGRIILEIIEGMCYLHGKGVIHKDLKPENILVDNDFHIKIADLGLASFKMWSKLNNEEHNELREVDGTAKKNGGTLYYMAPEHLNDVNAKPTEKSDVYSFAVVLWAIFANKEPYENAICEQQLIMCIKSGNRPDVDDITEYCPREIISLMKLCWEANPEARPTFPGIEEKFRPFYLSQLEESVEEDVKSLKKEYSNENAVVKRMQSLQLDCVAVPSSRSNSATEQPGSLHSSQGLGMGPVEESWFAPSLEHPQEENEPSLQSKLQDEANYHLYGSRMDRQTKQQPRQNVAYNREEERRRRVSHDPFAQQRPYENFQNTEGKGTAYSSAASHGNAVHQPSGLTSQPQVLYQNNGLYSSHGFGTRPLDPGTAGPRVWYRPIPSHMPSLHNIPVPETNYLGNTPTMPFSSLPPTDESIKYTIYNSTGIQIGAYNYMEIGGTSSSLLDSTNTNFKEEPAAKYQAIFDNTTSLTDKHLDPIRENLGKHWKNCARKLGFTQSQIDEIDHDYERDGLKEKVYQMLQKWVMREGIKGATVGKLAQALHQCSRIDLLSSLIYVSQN
Assay: ADP-Glo Kinase Assay
Procedure: In order to measure RIPK1 activity the ADP-Glo kinase assay (Promega, Catalog #V7002) was used to measure the conversion of ATP to ADP. […] Stock solutions of the test compounds were prepared in 100% DMSO (Sigma, Catalog #D2650) and serially diluted 1:3 using 100% DMSO. Compounds were additionally diluted 1:40 in assay buffer, and 2 μL/well were transferred to the assay plate. 4 μL/well (final concentration of 5 nM) of RIPK1 protein (SignalChem, Catalog #R07-1IG-05) diluted in assay buffer and added to the assay plate followed by a 10 minute preincutation at rt. 4 μL/well of ATP (Promega, Catalog #V7002) (final concentration of 50 μM) diluted in assay buffer were then added to the assay plate followed by a 6 h reaction time. Final concentrations of RIPK1 and ATP refer to a 10 μL volume. Luminescence was measured using a BioTek Synergy™ NEO plate reader. IC50 values were calculated using a four-parameter logistic curve fit using Genedata Screener software.

Structure (SMILES): O=C(N1N=CCC1c1cc(F)cc(F)c1)C12CC(Cn3ncc4ncccc43)(C1)C2 (stereo unspecified) [US20250214942, Example 148]
- IC50: 80 nM
